Patent US20210395217A1, “PESTICIDALLY ACTIVE AZOLE-AMIDE COMPOUNDS” (SYNGENTA PARTICIPATIONS AG, priority 2018, published 2021)

How the values were obtained:
Assay type in all cases: in vivo
[1] = system: Diabrotica balteata; assay: Example B1: Diabrotica balteata (corn root worm), maize sprouts sprayed, L2 larvae; conditions: 96 h, application rate of 200 ppm, 4 days after infestation, read-out: control in at least one of the two categories (mortality or growth inhibition)
Procedure: Example B1: Diabrotica balteata (Corn Root Worm)
Maize sprouts placed onto an agar layer in 24-well microtiter plates were treated with aqueous test solutions prepared from 10′000 ppm DMSO stock solutions by spraying. After drying, the plates were infested with L2 larvae (6 to 10 per well). The samples were assessed for mortality and growth inhibition in comparison to untreated samples 4 days after infestation.
The following compounds gave an effect of at least 80% control in at least one of the two categories (mortality or growth inhibition) at an application rate of 200 ppm: […]

[2] = system: Spodoptera littoralis; assay: Example B8: Spodoptera littoralis (Egyptian cotton leaf worm), uptake by lettuce roots from agar, eggs; conditions: 144 h, test rate of 12.5 ppm, 6 days after infestation, compound absorbed by lettuce roots, read-out: control in at least one of the three categories (mortality, anti-feeding, or growth inhibition)
Text: Example B8: Spodoptera Littoralis (Egyptian Cotton Leaf Worm)
Test compounds were applied by pipette from 10′000 ppm DMSO stock solutions into 24-well plates and mixed with agar. Lettuce seeds were placed onto the agar and the multi well plate was closed by another plate which contained also agar. After 7 days the compound was absorbed by the roots and the lettuce grew into the lid plate. The lettuce leaves were then cut off into the lid plate. Spodoptera eggs were pipetted through a plastic stencil onto a humid gel blotting paper and the lid plate was closed with it. The samples were assessed for mortality, anti-feedant effect and growth inhibition in comparison to untreated samples 6 days after infestation.
The following compounds gave an effect of at least 80% control in at least one of the three categories (mortality, anti-feeding, or growth inhibition) at a test rate of 12.5 ppm: […]

[3] = system: Euschistus heros; assay: Example B2: Euschistus heros (neotropical brown stink bug), soybean leaves sprayed, N2 nymphs; conditions: 120 h, application rate of 200 ppm, 5 days after infestation, read-out: control in at least one of the two categories (mortality or growth inhibition)
Procedure: Example B2: Euschistus heros (Neotropical Brown Stink Bug)
Soybean leaves on agar in 24-well microtiter plates were sprayed with aqueous test solutions prepared from 10′000 ppm DMSO stock solutions. After drying the leaves were infested with N2 nymphs. The samples were assessed for mortality and growth inhibition in comparison to untreated samples 5 days after infestation.
The following compounds gave an effect of at least 80% control in at least one of the two categories (mortality or growth inhibition) at an application rate of 200 ppm: F2, F4, F6, F8, F12, F16.

[4] = system: Myzus persicae; assay: Example B6: Myzus persicae (green peach aphid), intrinsic activity, sucrose solution, 24-well; conditions: 120 h, test rate of 12 ppm, 5 days after infestation
Text: Example B6: Myzus Persicae (Green Peach Aphid): Intrinsic Activity
Test compounds prepared from 10′000 ppm DMSO stock solutions were applied by pipette into 24-well microtiter plates and mixed with sucrose solution. The plates were closed with a stretched Parafilm. A plastic stencil with 24 holes was placed onto the plate and infested pea seedlings were placed directly on the Parafilm. The infested plate was closed with a gel blotting paper and another plastic stencil and then turned upside down. The samples were assessed for mortality 5 days after infestation.

[5] = system: Plutella xylostella; assay: Example B10: Plutella xylostella (diamondback moth), artificial diet, 96-well, eggs; conditions: 216 h, application rate of 500 ppm, 9 days after infestation, 96-well plates
Procedure: Example B10: Plutella xylostella (Diamondback Moth)
96-well microtiter plates containing artificial diet were treated with aqueous test solutions, prepared from 10′000 ppm DMSO stock solutions, by a liquid handling robot. After drying, eggs (˜30 per well) were infested onto a netted lid which was suspended above the diet. The eggs hatch and L1 larvae move down to the diet. The samples were assessed for mortality 9 days after infestation.
The following compounds gave an effect of at least 80% average mortality at an application rate of 500 ppm: […]

[6] = system: Plutella xylostella; assay: Example B4: Plutella xylostella (diamond back moth), artificial diet, 24-well, eggs; conditions: 192 h, application rate of 200 ppm, 8 days after infestation, 24-well plates, read-out: control in at least one of the two categories (mortality or growth inhibition)
Procedure: Example B4: Plutella xylostella (Diamond Back Moth)
24-well microtiter plates with artificial diet were treated with aqueous test solutions prepared from 10′000 ppm DMSO stock solutions by pipetting. After drying, Plutella eggs were pipetted through a plastic stencil onto a gel blotting paper and the plate was closed with it. The samples were assessed for mortality and growth inhibition in comparison to untreated samples 8 days after infestation. The following compounds gave an effect of at least 80% control in at least one of the two categories (mortality or growth inhibition) at an application rate of 200 ppm: […]

[7] = system: Myzus persicae; assay: Example B9: Myzus persicae (green peach aphid), sucrose solution, 96-well; conditions: 120 h, application rate of 50 ppm, 5 days after infestation, 96-well plates
Text: Example B9: Myzus persicae (Green Peach Aphid)
Test compounds prepared from 10′000 ppm DMSO stock solutions were applied by a liquid handling robot into 96-well microtiter plates and mixed with a sucrose solution. Parafilm was stretched over the 96-well microtiter plate and a plastic stencil with 96 holes was placed onto the plate. Aphids were sieved into the wells directly onto the Parafilm. The infested plates were closed with a gel blotting card and a second plastic stencil and then turned upside down. The samples were assessed for mortality 5 days after infestation.

[8] = system: Spodoptera littoralis; assay: Example B7: Spodoptera littoralis (Egyptian cotton leaf worm), cotton leaf discs sprayed, L1 larvae; conditions: foliar, 72 h, application rate of 200 ppm, 3 days after infestation, read-out: control in at least one of the three categories (mortality, anti-feedant effect, or growth inhibition)
Procedure: Example B7: Spodoptera littoralis (Egyptian Cotton Leaf Worm)
Cotton leaf discs were placed onto agar in 24-well microtiter plates and sprayed with aqueous test solutions prepared from 10′000 ppm DMSO stock solutions. After drying the leaf discs were infested with five L1 larvae. The samples were assessed for mortality, anti-feeding effect, and growth inhibition in comparison to untreated samples 3 days after infestation. Control of Spodoptera littoralis by a test sample is given when at least one of the categories mortality, anti-feedant effect, and growth inhibition is higher than the untreated sample.

[9] = system: Chilo suppressalis; assay: Example B3: Chilo suppressalis (striped rice stem borer), artificial diet, L2 larvae; conditions: 144 h, application rate of 200 ppm, 6 days after infestation, read-out: control in at least one of the three categories (mortality, anti-feedant effect, or growth inhibition)
Procedure: Example B3: Chilo suppressalis (Striped Rice Stem Borer)
24-well microtiter plates with artificial diet were treated with aqueous test solutions prepared from 10′000 ppm DMSO stock solutions by pipetting. After drying, the plates were infested with L2 larvae (6-8 per well). The samples were assessed for mortality, anti-feeding effect, and growth inhibition in comparison to untreated samples 6 days after infestation. Control of Chilo suppressalis by a test sample is given when at least one of the categories mortality, anti-feedant effect, and growth inhibition is higher than the untreated sample.

[10] = system: Myzus persicae; assay: Example B5: Myzus persicae (green peach aphid), feeding/contact activity, sunflower leaf discs; conditions: foliar, 144 h, application rate of 200 ppm, 6 days after infestation
Procedure: Example B5: Myzus persicae (Green Peach Aphid): Feeding/Contact Activity
Sunflower leaf discs were placed onto agar in a 24-well microtiter plate and sprayed with aqueous test solutions prepared from 10′000 ppm DMSO stock solutions. After drying, the leaf discs were infested with an aphid population of mixed ages. The samples were assessed for mortality 6 days after infestation.

CC(c1ncnn1-c1ccc(C#N)cn1)N(C)C(=O)c1cc(C(F)(F)F)cc(C(F)(F)F)c1 (stereo not shown) [Compound F2, N-[1-[2-(5-cyano-2-pyridyl)-1,2,4-triazol-3-yl]ethyl]-N-methyl-3,5-bis(trifluoromethyl) benzamide]
≥ 80%: percent control (mortality or growth inhibition) at 200 ppm [1] | percent control (mortality, anti-feeding or growth inhibition) at 12.5 ppm [2] | percent control (mortality or growth inhibition) at 200 ppm [3] | mortality at 12 ppm [4] | mortality at 500 ppm [5] | percent control (mortality or growth inhibition) at 200 ppm [6] | mortality at 50 ppm [7] | percent control (mortality, anti-feedant effect or growth inhibition) at 200 ppm [8] | percent control (mortality, anti-feedant effect or growth inhibition) at 200 ppm [9]

CC(c1ncnn1-c1ncc(C#N)cn1)N(CC1CC1)C(=O)c1cc(C(F)(F)F)cc(C(F)(F)F)c1 (stereo not shown) [Compound F4, N-[1-[2-(5-cyanopyrimidin-2-yl)-1,2,4-triazol-3-yl]ethyl]-N-(cyclopropylmethyl)-3,5-bis(trifluoromethyl) benzamide]
≥ 80%: percent control (mortality or growth inhibition) at 200 ppm [1] | percent control (mortality or growth inhibition) at 200 ppm [3] | percent control (mortality, anti-feedant effect or growth inhibition) at 200 ppm [8]

Cc1nc(C(C)NC(=O)c2cc(OC(F)F)cc(C(F)(F)F)c2)n(-c2ccc(C#N)cn2)n1 (stereo not shown) [Compound F6, N-[1-[2-(5-cyano-2-pyridyl)-5-methyl-1,2,4-triazol-3-yl]ethyl]-3-(difluoromethoxy)-5-(trifluoromethyl) benzamide]
≥ 80%: percent control (mortality or growth inhibition) at 200 ppm [1] | percent control (mortality or growth inhibition) at 200 ppm [3] | mortality at 12 ppm [4] | percent control (mortality or growth inhibition) at 200 ppm [6] | mortality at 50 ppm [7] | percent control (mortality, anti-feedant effect or growth inhibition) at 200 ppm [8]

Cc1nc(C(C)NC(=O)c2cc(Br)cc(C(F)(F)F)c2)n(-c2ccc(C#N)cn2)n1 (stereo not shown) [Compound F8, 3-bromo-N-[1-[2-(5-cyano-2-pyridyl)-5-methyl-1,2,4-triazol-3-yl]ethyl]-5-(trifluoromethyl) benzamide]
≥ 80%: percent control (mortality or growth inhibition) at 200 ppm [1] | percent control (mortality or growth inhibition) at 200 ppm [3] | mortality at 12 ppm [4] | percent control (mortality or growth inhibition) at 200 ppm [6] | mortality at 50 ppm [7] | percent control (mortality, anti-feedant effect or growth inhibition) at 200 ppm [8]

Cc1nc(C(C)NC(=O)c2cc(C(F)F)cc(C(F)(F)F)c2)n(-c2ccc(C#N)cn2)n1 (stereo not shown) [Compound F9, N-[1-[2-(5-cyano-2-pyridyl)-5-methyl-1,2,4-triazol-3-yl]ethyl]-3-(difluoromethyl)-5-(trifluoromethyl) benzamide]
≥ 80%: percent control (mortality or growth inhibition) at 200 ppm [1] | mortality at 12 ppm [4] | percent control (mortality or growth inhibition) at 200 ppm [6] | mortality at 50 ppm [7] | percent control (mortality, anti-feedant effect or growth inhibition) at 200 ppm [8] | percent control (mortality, anti-feedant effect or growth inhibition) at 200 ppm [9]

CC(NC(=O)c1cc(SC(F)(F)F)cc(C(F)(F)F)c1)c1nc(C2CC2)nn1-c1ccc(C#N)cn1 (stereo not shown) [Compound F12, N-[1-[2-(5-cyano-2-pyridyl)-5-cyclopropyl-1,2,4-triazol-3-yl]ethyl]-3-(trifluoromethyl)-5-(trifluoromethylsulfanyl) benzamide]
≥ 80%: percent control (mortality or growth inhibition) at 200 ppm [1] | percent control (mortality or growth inhibition) at 200 ppm [3] | mortality at 500 ppm [5] | percent control (mortality or growth inhibition) at 200 ppm [6] | percent control (mortality, anti-feedant effect or growth inhibition) at 200 ppm [8] | percent control (mortality, anti-feedant effect or growth inhibition) at 200 ppm [9]

Cc1nc(C(C)N(C)C(=O)c2cc(C(F)(F)F)cc(C(F)(F)F)c2)n(-c2ccc(C#N)cn2)n1 (stereo not shown) [Compound F16, N-[1-[2-(5-cyano-2-pyridyl)-5-methyl-1,2,4-triazol-3-yl]ethyl]-N-methyl-3,5-bis(trifluoromethyl) benzamide]
≥ 80%: percent control (mortality or growth inhibition) at 200 ppm [1] | percent control (mortality or growth inhibition) at 200 ppm [3] | mortality at 12 ppm [4] | mortality at 200 ppm [10] | percent control (mortality or growth inhibition) at 200 ppm [6] | mortality at 50 ppm [7] | percent control (mortality, anti-feedant effect or growth inhibition) at 200 ppm [8] | percent control (mortality, anti-feedant effect or growth inhibition) at 200 ppm [9]

CC(NC(=O)c1cc(OCC(F)(F)F)cc(C(F)(F)F)c1)c1ncnn1-c1ccc(C#N)cn1 (stereo not shown) [Compound F21, N-[1-[2-(5-cyano-2-pyridyl)-1,2,4-triazol-3-yl]ethyl]-3-(2,2,2-trifluoroethoxy)-5-(trifluoromethyl) benzamide]
≥ 80%: percent control (mortality or growth inhibition) at 200 ppm [1] | mortality at 500 ppm [5] | percent control (mortality or growth inhibition) at 200 ppm [6] | percent control (mortality, anti-feedant effect or growth inhibition) at 200 ppm [8] | percent control (mortality, anti-feedant effect or growth inhibition) at 200 ppm [9]
